Assay results from patent US11259522B2, “Control of resistant pests” (priority 2017, dated 2022).
Values after ≈ are worked out from the molar mass of the structure shown. Values joined by “and” are separate entries in the source; they are usually repeats but may differ in a detail not shown here. Equal entries are not always repeated. Where two headings read alike, the source gives them in different places.

Legend:
[1] = test system: Sitophilus oryzae susceptible strain LS2; assay: Grain protectant bioassay on treated wheat, S. oryzae susceptible; assay type: in vivo; settings: for Progeny reduction (%): vs untreated control
[2] = test system: Aedes aegypti PRS Puerto Rican strain (synthetic pyrethroid resistant) L3 larvae; assay: Mosquito larval dose response assay, PRS strain; settings: read-out: Lethal Concentration (LC50) PRS Strain
[3] = test system: Aedes aegypti Liverpool strain (insecticide susceptible, LVP) L3 larvae; assay: Mosquito larval dose response assay, LVP strain; settings: read-out: Lethal Concentration (LC50) LVP Strain
[4] = test system: Halotydeus destructor susceptible population; assay: Coated plastic vial bioassay, redlegged earth mite, susceptible population; assay type: in vivo; settings: for mortality at 300 µg/mL: 300 mg a.i./L
Method: The efficacy of flavesone against H. destructor was assessed using the glass vial technique developed by Hoffmann et al. (1997, Exp. Appl. Acarol., 21:151-162), adapted for plastic vials. A susceptible population of mites was collected from capeweed (Arctotheca calendula) at a Victorian site (37° 40′33″S, 145° 07′ 45″E) that had no known history of insecticide application. Following collection, samples were stored in small plastic containers with leaf material and paper towel to absorb excess moisture. Containers were kept at 4° C. prior to testing.
The test compositions included 0.1% Tween 20 non-ionic surfactant to aid the spread of insecticides when coating plastic vials. This concentration of Tween 20 has been previously shown to have no toxic effect on H. destructor. For each insecticide concentration tested, 3, 10, 30, 100, 300, 1000, 3000 and 10000 mg a.i./L (ppm), approximately 10 mL of solution was poured into a 15 mL plastic vial and swirled to ensure a complete coating, with excess liquid removed. Eight vials were coated per concentration and were left to dry overnight. Control vials were treated in the same way but with water used in place of test composition.
Eight susceptible H. destructor mites were then placed into each vial along with a leaf of common vetch (Vicia sativa). The leaf was added to provide food and increase humidity. Vials were then sealed with a lid and placed at 18° C. After 4, 6, 8 and 24 hours of exposure, the mites were scored as alive (moving freely), incapacitated (inhibited movement), or dead (no movement over a 5 second period). […]
The data produced in the assays were assessed for concentrations that caused 50, 90 and 99% mortality (lethal concentration, LC), together with 95% confidence intervals (CIs) and were estimated from observations of mortality after 24 hours exposure using a binomial logistic regression (Robertson & Preisler, 1992, Pesticide Bioassays with Arthropods. CRC: Boca Raton; Venables & Ripley, 2002, Modern Applied Statistics with S. Springer: New York). Population differences were tested by comparing the change in model deviance with and without the population factor (different regression intercepts for each population). Differences in regression slopes between populations were tested by comparing the change in model deviance with and without the population×dose interaction term. The resistance ratio of the insecticide-resistant population was estimated as the ratio of its LC50 to that of the susceptible population. All analyses were performed using R 3.3. (R Core Team 2017, R: A language and environment for statistical computing. R Foundation for Statistical Computing, Vienna, Austria. http://www.R-project.org).

[5] = test system: Sitophilus oryzae strain QSO393 (resistant to fenitrothion); assay: Grain protectant bioassay on treated wheat, S. oryzae resistant; assay type: in vivo; settings: for Progeny reduction (%): vs untreated control
[6] = test system: Rhyzopertha dominica susceptible strain QRD14; assay: Grain protectant bioassay on treated wheat, susceptible lesser grain borer; assay type: in vivo; settings: for 14 day Adult Mortality No. dead/total / F1 Progeny count No. dead/total: Example 8, QQRD14, replicates A, B, C; for Progeny reduction (%): vs untreated control
Excerpt: The experiment of Example 5 was repeated using a laboratory reared susceptible strain QQRD14 of R. dominica and different concentrations of flavesone to determine efficacy.

[7] = Sitophilus oryzae, 336 h, 25 mg/kg, 2 weeks, mean ± SE, read-out: Adult mortality (%)
[8] = Sitophilus oryzae, 336 h, 60 mg/kg, 2 weeks, mean ± SE, read-out: Adult mortality (%)
[9] = Susceptible population, 24 hours exposure

How did the Live adult progeny ([1]; 25 mg/kg, mean ± SE) turn out when CC(C)C(=O)C1C(=O)C(C)(C)C(=O)C(C)(C)C1=O [Flavesone, 1-isobutyroyl-3,3,5,5-tetramethylcyclohexane-2,4,6-trione] was run?
The Live adult progeny was 735.3 ± 60.6.

What about the Live adult progeny ([1]; 60 mg/kg, mean ± SE) of the same molecule?
The Live adult progeny was 355.3 ± 64.7.

What about the “Progeny reduction (%)” value ([1]; 60 mg/kg) of the same molecule?
Its value is 50.3%.

What about the “Progeny reduction (%)” value ([1]; 60 mg/kg, listed as flavesone) of the same molecule?
Its value is 50%.

And the mortality at 25 mg/kg [1, 7]?
Its mortality at 25 mg/kg is 1.3 ± 0.7%.

What about the mortality at 60 mg/kg [1, 8] of the same molecule?
Its mortality at 60 mg/kg is 4 ± 1.2%.

What about the LC50 ([2]; 24 h) of the same molecule?
The LC50 was 40.9 µg/mL (≈ 162 µM).

What about the LC50 ([2]; 48 h) of the same molecule?
The LC50 was 40.5 µg/mL (≈ 161 µM).

What about the LC50 ([2]; 72 h) of the same molecule?
The LC50 was 39.7 µg/mL (≈ 157 µM).

What about the LC50 ([3]; 24 h) of the same molecule?
Its LC50 is 40.9 µg/mL (≈ 162 µM).

And the LC50 ([3]; 48 h)?
Its LC50 is 40.5 µg/mL (≈ 161 µM).

What about the LC50 ([3]; 72 h) of the same molecule?
The LC50 was 39.7 µg/mL (≈ 157 µM).

And the mortality ([4]; Example 9, all application rates above 300 mg a.i./L, by 4 hours exposure)?
Its mortality is 100%.

What about the mortality at 300 µg/mL ([4]; Halotydeus destructor, Example 9, 4 hours of exposure, read-out: mortality (average)) of the same molecule?
The mortality at 300 µg/mL was 55%.

What about the mortality at 300 µg/mL ([4]; Halotydeus destructor, Example 9, by 8 hours of exposure, read-out: mortality) of the same molecule?
The mortality at 300 µg/mL was 100%.

And the LC50 ([4]; Halotydeus destructor, Susceptible population, 24 hours exposure, read-out: LC50 (mg a.i./L))?
Its LC50 is 40.6 µg/mL (≈ 161 µM).

What about the “LC90 (mg a.i./L)” value [4, 9] of the same molecule?
Its value is 142.55 mg a.i./L.

And the “LC99 (mg a.i./L)” value [4, 9]?
The value was 561.35 mg a.i./L.

What about the Live adult progeny ([5]; 25 mg/kg, mean ± SE) of the same molecule?
The Live adult progeny was 572.7 ± 100.9.

And the “Progeny reduction (%)” value ([5]; 25 mg/kg)?
Its value is 6.1%.

What about the Live adult progeny ([5]; 60 mg/kg, mean ± SE) of the same molecule?
The Live adult progeny was 430.0 ± 51.0.

What about the “Progeny reduction (%)” value ([5]; 60 mg/kg) of the same molecule?
Its value is 29.5%.

And the “Progeny reduction (%)” value ([5]; 60 mg/kg, listed as flavesone)?
The value was 29%.

What about the mortality at 25 mg/kg [5, 7] of the same molecule?
Its mortality at 25 mg/kg is 0.7 ± 0.7%.

What about the mortality at 60 mg/kg [5, 8] of the same molecule?
Its mortality at 60 mg/kg is 0.7 ± 0.7%.

And the “14 day Adult Mortality No. dead/total” value ([6]; 5 ppm on wheat)?
Its value is 0/50.

What about the “F1 Progeny count No. dead/total” value ([6]; 5 ppm on wheat) of the same molecule?
Its value is 4/930 and 4/999 and 1/866.

And the “14 day Adult Mortality No. dead/total” value ([6]; 10 ppm on wheat)?
The value was 6/50 (2×) and 8/50.

And the “F1 Progeny count No. dead/total” value ([6]; 10 ppm on wheat)?
The value was 3/446 and 0/444 and 3/487.

What about the “14 day Adult Mortality No. dead/total” value ([6]; 25 ppm on wheat) of the same molecule?
Its value is 50/50.

What about the “F1 Progeny count No. dead/total” value ([6]; 25 ppm on wheat) of the same molecule?
Its value is 0/0.

And the “14 day Adult Mortality No. dead/total” value ([6]; 50 ppm on wheat)?
Its value is 50/50.

What about the “F1 Progeny count No. dead/total” value ([6]; 50 ppm on wheat) of the same molecule?
Its value is 0/0.

What about the “14 day Adult Mortality No. dead/total” value ([6]; 100 ppm on wheat) of the same molecule?
The value was 50/50.

And the “F1 Progeny count No. dead/total” value ([6]; 100 ppm on wheat)?
The value was 0/0.

And the Live adult progeny ([6]; QRD14, 25 mg/kg, mean ± SE)?
Its Live adult progeny is 0.0 ± 0.0.

What about the “Progeny reduction (%)” value ([6]; QRD14, 25 mg/kg) of the same molecule?
Its value is 100%.

And the Live adult progeny ([6]; QRD14, 60 mg/kg, mean ± SE)?
Its Live adult progeny is 0.0 ± 0.0.

What about the “Progeny reduction (%)” value ([6]; QRD14, 60 mg/kg) of the same molecule?
Its value is 100%.

And the mortality at 25 mg/kg ([6]; Rhyzopertha dominica, 336 h, QRD14, 25 mg/kg, 2 weeks, mean ± SE, read-out: Adult mortality (%))?
Its mortality at 25 mg/kg is 98 ± 1.2%.

And the mortality at 60 mg/kg ([6]; Rhyzopertha dominica, 336 h, QRD14, 60 mg/kg, 2 weeks, mean ± SE, read-out: Adult mortality (%))?
Its mortality at 60 mg/kg is 100%.
